According to the supplement of paper PMC3937590:

How the values were obtained:
Assay in all cases: -log10 GI50 (growth inhibition 50%) (-log10(M)); higher = more potent growth inhibition
[1] = test system: 184A1
How it was run: (§1)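 Dose-response data came from breast cancer cell lines exposed to each compound for 72 hours at nine doses in 1:5 serial dilution, in triplicate, and read by luminescence relative to a time-zero plate. A Gompertz curve fitted by nonlinear least squares gave GI50, the molar concentration for the set level of growth inhibition, reported as its negative logarithm to base 10. Where a value equals the top dose, it carries a < qualifier.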

[2] = test system: 600MPE
How it was run: as §1

[3] = test system: BT20
How it was run: as §1

[4] = test system: HCC1569
How it was run: as §1

[5] = test system: HCC3153
How it was run: as §1

[6] = test system: MDAMB134VI
How it was run: as §1

[7] = test system: MDAMB175VII
How it was run: as §1

[8] = test system: MX1
How it was run: as §1

[9] = test system: SUM229PE
How it was run: as §1

[10] = test system: HCC202
How it was run: as §1

| Compound | -log10 GI50 [1] | -log10 GI50 [2] | -log10 GI50 [3] | -log10 GI50 [4] | -log10 GI50 [5] | -log10 GI50 [6] | -log10 GI50 [7] | -log10 GI50 [8] | -log10 GI50 [9] | -log10 GI50 [10] |
| --- | --- | --- | --- | --- | --- | --- | --- | --- | --- | --- |
| COc1cc2c(Nc3ccc(NC(=O)c4ccccc4)cc3)ncnc2cc1OCCCN1CCOCC1 | < 4.3 | < 4 | 5.33 | 5.69 | < 4 | 5.03 | 5.26 | 6.35 | 5.93 | – |
| COc1cccc(-c2cc(=O)c3ccccc3o2)c1N | < 4.3 | < 4.3 | 4.45 | < 4.3 | 4.1 | < 4 | 4.85 | 4.39 | < 4.3 | – |
| COc1ncc(-c2ccc3nccc(-c4ccnnc4)c3c2)cc1NS(=O)(=O)c1ccc(F)cc1F | 8.77 | 8.22 | 7.8 | 7.75 | 7.38 | 7.97 | 8.73 | 8.39 | 8.59 | 9.25 |
| O=C1C(Cl)=C(NCCN2CCOCC2)C(=O)c2ncccc21 | 5.82 | 5.34 | 5.49 | 5.36 | 5.64 | 5.22 | 5.3 | 6.17 | 5.26 | – |
| O=C1NC(=O)/C(=C/c2ccc(-c3ccc(F)cc3O)o2)S1 | 5.43 | 5.19 | 4.93 | 4.54 | < 4.18 | 4.48 | 5.29 | 4.66 | < 4.18 | – |
| Oc1cc(-c2nc(-c3ccccc3)[nH]c2-c2ccncc2)ccc1Cl | 5.06 | 5.07 | 4.62 | 4.77 | < 4.48 | 4.85 | 5.09 | 4.98 | 4.52 | – |
| Cn1cnc2c(F)c(Nc3ccc(Br)cc3Cl)c(C(=O)NOCCO)cc21 [AZD6244] | 6.5 | 6.24 | < 4.3 | < 4.3 | < 4.3 | 6.2 | 5.59 | 6.34 | 7.13 | – |
| O=c1[nH]c2ccccc2n1C1CCN(Cc2ccc(-c3[nH]c4cc5ncnc5cc4nc3-c3ccccc3)cc2)CC1 [Akt inhibitor VIII] | 5.58 | 5.15 | 5.09 | 5.07 | 5.01 | 5.05 | 5.75 | 5.45 | 4.94 | – |
| Cn1c(=O)n(-c2ccc(C(C)(C)C#N)cc2)c2c3cc(-c4cnc5ccccc5c4)ccc3ncc21 [BEZ235] | 7.19 | < 4.48 | 5.6 | 6.33 | 6.19 | < 4.48 | 6.46 | < 4.48 | 6.67 | – |
| CN(C)C/C=C/C(=O)Nc1cc2c(Nc3ccc(F)c(Cl)c3)ncnc2cc1O[C@H]1CCOC1 [BIBW2992] | 7.74 | 5.63 | 5.56 | 6.56 | – | 5.44 | 8.35 | 6.58 | 5.95 | – |
| COc1cc(Nc2c(C#N)cnc3cc(OCCCN4CCN(C)CC4)c(OC)cc23)c(Cl)cc1Cl [Bosutinib] | 6.3 | 5.27 | 5.89 | 5.76 | 5.18 | < 4 | 6.07 | 6.38 | 5.88 | – |
| CO[C@H]1C[C@@H]2CC[C@@H](C)[C@@](O)(O2)C(=O)C(=O)N2CCCC[C@H]2C(=O)O[C@H]([C@H](C)C[C@@H]2CC[C@@H](OCCO)[C@H](OC)C2)CC(=O)[C@H](C)/C=C(\C)[C@@H](O)[C@@H](OC)C(=O)[C@H](C)C[C@H](C)/C=C/C=C/C=C/1C [Everolimus] | 6.16 | 4.7 | – | 5.15 | 4.85 | 7.27 | 5.1 | 5.33 | 4.75 | – |
| CSCC[C@H](NC(=O)[C@H](Cc1ccccc1)NC[C@@H](NC[C@@H](N)CS)C(C)C)C(=O)O [FTase inhibitor I] | < 4.18 | < 4.48 | < 4.48 | < 4.18 | < 4.48 | < 4.48 | < 4.48 | < 4.48 | < 4.48 | – |
| Cc1cncc2cccc(S(=O)(=O)N3CCCN(C(=O)CN)C[C@@H]3C)c12 [Glycyl H1152] | < 4.18 | < 4.18 | 5.18 | 5.21 | < 4.48 | 5.9 | < 4.18 | 5.96 | 5.31 | – |
| CC(C(C)N1CC(=O)NC(=O)C1)N1CC(=O)NC(=O)C1 (stereo not drawn) [ICRF-193] | < 4.3 | < 4.3 | < 4.3 | < 4.3 | < 4.48 | 4.32 | < 4.3 | 5.95 | 6.14 | – |
| O=C(c1ccc(Nc2nccc(-c3cc4ccccc4s3)n2)cc1)N1CCC(N2CCCC2)CC1 [IKK 16] | 6.05 | 5.11 | 5.42 | 5.48 | 5.48 | 5.26 | – | – | 6 | 5.1 |

| Compound | -log10 GI50 [1] | -log10 GI50 [2] | -log10 GI50 [3] | -log10 GI50 [4] | -log10 GI50 [5] | -log10 GI50 [6] | -log10 GI50 [7] | -log10 GI50 [8] | -log10 GI50 [9] | -log10 GI50 [10] |
| --- | --- | --- | --- | --- | --- | --- | --- | --- | --- | --- |
| CCCCCN(C)CCC(O)(P(=O)(O)O)P(=O)(O)O [Ibandronate sodium] | 3.81 | 3.67 | 4.69 | 4.21 | 4.05 | 4.17 | 4.47 | 3.94 | 4.27 | – |
| C/C(=C\c1csc(C)n1)[C@@H]1C[C@@H]2O[C@]2(C)CCC[C@H](C)[C@H](O)[C@@H](C)C(=O)C(C)(C)[C@@H](O)CC(=O)N1 [Ixabepilone] | 6.67 | 8.53 | 8.45 | 6.55 | 8.21 | 9 | 7.03 | 8.53 | 8.72 | 6.37 |
| Cc1[nH]c2ccccc2c1CCNCc1ccc(/C=C/C(=O)NO)cc1 [LBH589] | 6.56 | 6.72 | 6.41 | 6.81 | 6.53 | 7.05 | 6.41 | 7.47 | 6.57 | – |
| C[C@]12O[C@H](C[C@]1(O)CO)n1c3ccccc3c3c4c(c5c6ccccc6n2c5c31)CNC4=O [Lestaurtinib] | 5.87 | 5.77 | 5.53 | 6.19 | 5.06 | 6.33 | 6.09 | 7.17 | 6.48 | – |
| NS(=O)(=O)OC[C@@H]1C[C@@H](n2ccc3c(N[C@H]4CCc5ccccc54)ncnc32)C[C@@H]1O [MLN4924] | 6.24 | 6.49 | 5.7 | 4.86 | 6.44 | 7.06 | 6.64 | 5.7 | 6.59 | – |
| NS(=O)(=O)c1ccc(Nc2nc(OCC3CCCCC3)c3[nH]cnc3n2)cc1 [NU6102] | 5.22 | – | – | 4.79 | 4.8 | 4.74 | 4.28 | 5.47 | 5.1 | – |
| O=C(/C=C/C#Cc1cccc(NS(=O)(=O)c2ccccc2)c1)NO [Oxamflatin] | 5.86 | 5.53 | 5.42 | 5.88 | 5.82 | 6.18 | 5.41 | 6.32 | 5.74 | – |
| Nc1nc2[nH]cc(CCc3ccc(C(=O)N[C@@H](CCC(=O)O)C(=O)O)cc3)c2c(=O)[nH]1 [Pemetrexed] | 6.38 | < 2.53 | < 2.53 | < 2.53 | < 2.53 | < 2.53 | 8.1 | < 2.53 | 4.53 | 5.11 |
| O=S(=O)(CC1CS1)c1ccc(Oc2ccccc2)cc1 (stereo not drawn) [SB-3CT] | < 3.78 | < 4 | 4.21 | < 3.78 | < 4 | < 4 | < 4 | 4.85 | < 4 | – |
| N#Cc1c(-c2ccccc2)cc(-c2cc(Br)ccc2O)[nH]c1=O [TCS PIM-11] | 5.16 | < 3.88 | < 3.88 | 4.33 | < 3.88 | < 3.88 | < 3.88 | 4.73 | 4.57 | – |
| CO[C@H]1C[C@@H]2CC[C@@H](C)[C@@](O)(O2)C(=O)C(=O)N2CCCC[C@H]2C(=O)O[C@H]([C@H](C)C[C@@H]2CC[C@@H](OC(=O)C(C)(CO)CO)[C@H](OC)C2)CC(=O)[C@H](C)/C=C(\C)[C@@H](O)[C@@H](OC)C(=O)[C@H](C)C[C@H](C)/C=C/C=C/C=C/1C [Temsirolimus] | 6.3 | 4.74 | 6.18 | 5.49 | 4.63 | 6.89 | 4.66 | 5.45 | 4.87 | – |
| CC(/C=C/C(=O)NO)=C\[C@@H](C)C(=O)c1ccc(N(C)C)cc1 [Trichostatin A] | 4.73 | 5.19 | 4.68 | 5.06 | 4.62 | 5.2 | 5.3 | 4.79 | 4.83 | 6.4 |
| Cc1cc(Nc2cc(N3CCN(C)CC3)nc(Sc3ccc(NC(=O)C4CC4)cc3)n2)n[nH]1 [VX-680] | 5.64 | 5.06 | 5.34 | 5.68 | 4.72 | 6.03 | 4.72 | 6.81 | 6.47 | – |
| CCCC(CCC)C(=O)O [Valproic acid] | 3 | 2.52 | 2.44 | 2.77 | 2.55 | 3.12 | 2.96 | 3.45 | 2.65 | – |
| O=C(CCCCCCC(=O)Nc1ccccc1)NO [Vorinostat] | 3.87 | 4.18 | 3.74 | 3.98 | 3.77 | 4.4 | 4.29 | 4.06 | 4.02 | 5.03 |
| Cc1cc(C(=O)N2CCN(c3cccc(Cl)c3)CC2)n(-c2ccccc2)n1 [XRP44X] | 6.5 | < 3.88 | 5.29 | 4.6 | 5.74 | 6.09 | 5.44 | 6.04 | 6.6 | – |
